Results published in patent US6281250A, “Retinyl ethers, derivatives and analogues and inhibition of breast carcinogenesis” (Southern Research Institute, priority 1999, dated 2001).
“Also recorded” adds a separate entry of the source. Values belong to the molecule of their own block, whether it stands above or below them.

Columns and labels:
[1] = 24 hours or similar, protected from light and air; Shealy et al, 1997; cited from earlier work
[2] = target: T1, cellular retinol-binding protein (CRBP) (Rattus norvegicus, UniProt P02696); experiment: Binding to cellular retinol-binding protein (CRBP): inhibition of [3H]retinol binding, sucrose density-gradient sedimentation; conditions: for Percent Inhibition of [3H] Retinol Binding (CRBP Assay): 150-fold molar excess of unlabelled test retinoid, rat testes cytosol
T1 construct: portions of rat testes cytosol (1 mg protein) were incubated; from tissue; host or cells: rat testes cytosol
T1 sequence (P02696 1-135): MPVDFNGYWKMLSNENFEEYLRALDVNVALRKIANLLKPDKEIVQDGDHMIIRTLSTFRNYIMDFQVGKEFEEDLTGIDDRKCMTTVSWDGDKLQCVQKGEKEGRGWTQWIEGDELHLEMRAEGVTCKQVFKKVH
Description: Binding affinities of the retinyl ethers for CRBP were determined by sucrose, density-gradient, sedimentation analysis as described before (Sani et al., 1980). Briefly, portions of rat testes cytosol (1 mg protein) were incubated with [^3 H]retinol (50 pmol) in the presence or absence of a 150-fold molar excess of unlabeled retinol or the test retinoids. The preparations after dialysis were analyzed by 5-20% sucrose density gradient sedimentation. For measuring the competitive binding of the unlabeled retinoids, inhibition of [^3 H]retinol binding to CRBP by unlabeled retinol is regarded as 100%. The mean and standard deviation calculated from the relative inhibitions obtained from multiple determinations were used as the relative binding affinities of the various retinyl ethers.
The group of retinyl benzyl ethers has now been evaluated for binding to CRBP. Binding to CRBP, as defined for Table I, at approximately 60% or higher was rated as strong; at 40-60%, as moderate; at 20-40%, as low.
^a Per cent inhibition of binding of tritiated retinol to CRBP by a
150-fold molar excess of the unlabelled test retinoid (Sani et al., 1980,

[3] = test system: MNU-induced mammary cancer; experiment: Short-term (90-day) assay against MNU-induced mammary cancer in rats (Expts. 2 and 3); assay type: in vivo, rat (female Sprague-Dawley); conditions: for effectiveness in reducing the number of tumors per rat: in feed
Description: (§1) Retinoid diet mixtures were stored at 4° C. […] The animals were palpated for mammary tumors 2×/week. […] Also, five rats/group had complete necropsies performed.
(§2) The 2,5-dimethoxybenzyl (3b) and 4-methoxybenzyl (3e) ethers were tested in the same way in a 90-day study. […] The 2,5-dimethybenzyl (3c) and the 2,3-dimethoxybenzyl (3h) ethers, together with RTMBE for comparison, were likewise assayed according to the same methodology. Prior to the beginning of this study, specimens of the retinoid-diet mixtures were placed under the conditions that were employed during the storage and feeding of RTMBE, 3c, and 3h. The specimens were extracted with butanol, and the extracts were analyzed by HPLC. […] Testing of 3c and 3h was discontinued, but the RTMBE study was continued until the duration of the study was 180 days (Table 6). The results were similar to those of Experiment 1 (Table 3). The averages of the number of tumors per rat were reduced by 32-35%; in addition, the averages of the tumor weights per rat was 56-70% lower than the average tumor burden of the control group.
and was continued until the studies of 3b, 3c, 3e, and 3h were terminated
90 days after administration of MNU. The RTMBE experiment was continued
until 180 days after MNU administration (Table VI).
kilogram of Teklad diet.

[4] = Toxicity observations in rats receiving retinoids in feed; assay type: in vivo, rat (Sprague-Dawley); conditions: administered in feed
Description: as §1

[5] = Analysis of feed samples for stability of retinyl ethers; assay type: physicochemical; conditions: for % recovery of retinyl ether: Vehicle + Retinoid (only); for stability in diet mixtures: conditions of storage and feeding in animal rooms
Description: as §2
^a The values in each column are % recoveries of the retinyl ether from
mixtures of the ether with feed samples and are based on the actual
amounts of the ether that were added.
^b The samples that were analyzed were mixtures of vehicle, retinoid,
and feed (prepared as described by Shealy et al., 1997).
^c Food cups were placed in animal cages within the room that housed
the rats; therefore, temperature (22° C.) and lighting were
identical to those in use during the in vivo tests.

in vivo = conditions: for NOAEL: mouse, in vivo, po; for Toxic Dose: oral gavage in corn oil, 28-29 days; for clinical toxicity (alopecia, scaly skin, limping): oral gavage, up to highest dose (RTMBE and RMoBE-4: Expt. 2)
Description: Toxicological evaluations involving measurement of body weights and observations of clinical signs characteristic of retinoid toxicity were accomplished as previously described (Lin et al., 1996).
RTMBE and two of its analogues, together with RME and RPE, were selected for estimation of their toxicities to mice when administered during 28-29 days by gavage in corn oil (Table 8). Mice were evaluated for changes in body weight and for signs of clinical retinoid toxicity (hypervitaminosis A) including alopecia, scaly skin, and limping. In the first experiment, these retinyl ethers were given at equimicromolar doses at three dose levels. The retinyl benzyl ethers (RTMBE, 3c, and 3e) were then tested at higher doses in a second experiment.

[6] = Mammary tissue-to-plasma concentration after intravenous dosing; assay type: in vivo, rat (female Sprague-Dawley); conditions: rat, 5 mg/kg i.v., after 24 hr, read-out: ratio of mammary tissue-to-plasma concentrations
[7] = rat, in feed; Shealy et al., 1997; cited from earlier work
[8] = test system: carcinogen-induced mammary cancer; conditions: rats; Thompson et al., 1978 / Shealy et al., 1997; cited from earlier work
[9] = test system: MNU-induced mammary cancer; conditions: 160 days
Description: Briefly, diets were prepared by mixing each retinoid with Wayne meal or Teklad (4%) mash diet. For each kg of diet, the retinoid was dissolved in 12 g ethanol, 19 g trioctanoin, 0.05 mL Tenox 20, and 0.05 mL d,1-alpha tocopherol prior to incorporation into the feed using a Patterson-Kelly blender. Retinoid diet mixtures were stored at 4° C. Portions of each retinoid-diet mixture were analyzed for the added retinoid to ensure homogeneity. Female Sprague-Dawley rats received an i.v. injection of MNU (45 mg/kg body weight) at 50 days of age. Diet supplementation with retinoids was initiated three days after MNU. A group of rats receiving retinyl acetate (1 mmol/kg of diet) served as the positive control. The animals were palpated for mammary tumors 2×/week. At termination of the study, mammary tumors were processed for histological classification. Also, five rats/group had complete necropsies performed. The tissues were examined histologically for pathological lesions as additional toxicological evaluation. Extracts of the liver and mammary gland (5 rats/group) were analyzed by HPLC for retinyl palmitate and/or for the dosed retinoid. Statistical analyses of cancer incidence and latency were determined using logrank analysis, while differences in cancer multiplicity were determined employing the Armitage test.
In this assay, described previously (Grubbs et al., 1995; Shealy el al., 1997), a retinoid dissolved in a solution (vehicle) consisting of ethanol and trioctanoin plus small amounts of Tenox 20 and α-tocopherol was mixed with feed, and the mixture was fed to rats after intravenous injection of MNU.
^a Female Sprague-Dawley rats (10/group) received one i.v. injection of
MNU (45 mg/kg of body weight) at 50 days of age. Diet supplementation with
retinoids was initiated at 52 days of age and was continued until the
study was terminated 160 days after administration of MNU.
^b Treatment with retinoids is stated in millimoles of retinoid per
kilogram of diet (Wayne meal).

[10] = test system: MNU-induced mammary tumors; conditions: with MNU, 1 mmol/kg diet
Description: The methods employed in the preparation of diets, analyses of retinoid-dietspecimens, and dietary treatment with retinoids of MNU-induced mammary carcinogenesis in Sprague-Dawley rats were described previously (Grubbs et al., 1995; Shealy et al., 1997). Briefly, diets were prepared by mixing each retinoid with Wayne meal or Teklad (4%) mash diet. For each kg of diet, the retinoid was dissolved in 12 g ethanol, 19 g trioctanoin, 0.05 mL Tenox 20, and 0.05 mL d,1-alpha tocopherol prior to incorporation into the feed using a Patterson-Kelly blender. Retinoid diet mixtures were stored at 4° C. Portions of each retinoid-diet mixture were analyzed for the added retinoid to ensure homogeneity. Female Sprague-Dawley rats received an i.v. injection of MNU (45 mg/kg body weight) at 50 days of age. Diet supplementation with retinoids was initiated three days after MNU. A group of rats receiving retinyl acetate (1 mmol/kg of diet) served as the positive control. The animals were palpated for mammary tumors 2×/week. At termination of the study, mammary tumors were processed for histological classification. Also, five rats/group had complete necropsies performed. The tissues were examined histologically for pathological lesions as additional toxicological evaluation. Extracts of the liver and mammary gland (5 rats/group) were analyzed by HPLC for retinyl palmitate and/or for the dosed retinoid. Statistical analyses of cancer incidence and latency were determined using logrank analysis, while differences in cancer multiplicity were determined employing the Armitage test.
^b Average number of palpable mammary tumors.
^c Diet supplementation with retinoids was initiated at 52 days of age
and was continued until the study was terminated 180 days after
administration of MNU. Treatment with retinoids is stated in millimoles of
retinoid per kilogram of diet (Wayne meal).
^d Female Sprague-Dawley rats received one i.v. injection of MNU (50
mg/kg of body weight) at 50 days of age.

[11] = Expt. 3, 0.5 mmol/kg diet, 90 days
[12] = Expt. 3, 1 mmol/kg diet, 90 days
[13] = Expt. 3, 2 mmol/kg diet, 90 days
[14] = After 1 week of 4° C., 10080 min
[15] = After 1 day in food cup (22° C.)
[16] = After 2 days in food cup (22° C.)
[17] = After 3 days in food cup (22° C.)
[18] = Expt. 2, 0.5 mmol/kg diet, 90 days
[19] = Expt. 2, 1 mmol/kg diet, 90 days
[20] = Expt. 2, 2 mmol/kg diet, 90 days

Percent Inhibition of [3H] Retinol Binding (CRBP Assay) [2]: 20 ± 5%
SMILES: COc1cccc(COC/C=C(C)/C=C/C=C(C)/C=C/C2=C(C)CCCC2(C)C)c1 [Compound 3f, Retinyl 3-Methoxy Benzyl Ether]
binding to CRBP, in words ([2]; 150-fold molar excess): modest, but significant, binding affinity

binding to CRBP, in words ([2]; 150-fold molar excess): not conducive to CRBP binding
Percent Inhibition of [3H] Retinol Binding (CRBP Assay) [2]: 0%
SMILES: CC1=C(/C=C/C(C)=C/C=C/C(C)=C/COCc2ccc(C)cc2)C(C)(C)CCC1 [Compound 3g, Retinyl 4-Methylbenzyl Ether]

Percent Inhibition of [3H] Retinol Binding (CRBP Assay) [2]: 0%
% recovery of retinyl ether from feed [5, 14]: 99.7%
% recovery of retinyl ether from feed [5, 15]: 95%
% recovery of retinyl ether from feed [5, 16]: 94%
% recovery of retinyl ether from feed [5, 17]: 97.9%
% recovery of retinyl ether from feed ([5]; Immediately After Mixing): 95%
% recovery of retinyl ether [5]: 98.7%
stability in diet mixtures [5]: essentially unchanged
SMILES: COc1cccc(COC/C=C(C)/C=C/C=C(C)/C=C/C2=C(C)CCCC2(C)C)c1OC [Compound 3h, Retinyl 2,3-Dimethoxybenzyl Ether]
effectiveness in reducing the number of tumors per rat ([3]; 90 days): not effective
Tumors, % of Control Gp. [3, 11]: 114%
Tumors, Avg. No. per Rat [3, 11]: 2.2
Tumors, % of Control Gp. [3, 12]: 104%
Tumors, Avg. No. per Rat [3, 12]: 2.0
Tumors, % of Control Gp. [3, 13]: 145%
Tumors, Avg. No. per Rat [3, 13]: 2.8

Percent Inhibition of [3H] Retinol Binding (CRBP Assay) [2]: 5 ± 5%
SMILES: COc1ccc(COC/C=C(C)/C=C/C=C(C)/C=C/C2=C(C)CCCC2(C)C)c(OC)c1OC [Compound 3i, Retinyl 2,3,4-Trimethoxybenzyl Ether]

Percent Inhibition of [3H] Retinol Binding (CRBP Assay) [2]: 7 ± 6%
SMILES: CC1=C(/C=C/C(C)=C/C=C/C(C)=C/COCc2c(C)cc(C)cc2C)C(C)(C)CCC1 [Compound 3j, Retinyl 2,4,6-Trimethylbenzyl Ether]

Percent Inhibition of [3H] Retinol Binding (CRBP Assay) [2]: 0%
SMILES: CC1=C(/C=C/C(C)=C/C=C/C(C)=C/COCc2ccc(Cl)cc2Cl)C(C)(C)CCC1 [Compound 3k, Retinyl 2,4-Dichlorobenzyl Ether]

Percent Inhibition of [3H] Retinol Binding (CRBP Assay) [2]: 40 ± 5%
SMILES: CC1=C(/C=C/C(C)=C/C=C/C(C)=C/COCc2c(Cl)cccc2Cl)C(C)(C)CCC1 [Compound 3l, Retinyl 2,6-Dichlorobenzyl Ether]

Binding to CRBP, rating ([2]; 150-fold molar excess): strong binding
Percent Inhibition of [3H] Retinol Binding (CRBP Assay) [2]: 60 ± 0%
SMILES: CC1=C(/C=C/C(C)=C/C=C/C(C)=C/COC(C)c2ccccc2)C(C)(C)CCC1 (stereo not drawn) [Compound 3m, Retinyl α-Methylbenzyl Ether]

Further lines, the molecule ahead of its results:

SMILES: CC#CCOCC#CC [Compound 1e, 2-butynyl ether]
stability in refluxing ethanol [1]: intramolecular cyclization

SMILES: CC1=C(/C=C/C(C)=C/C=C/C(C)=C/COCc2cc(C)ccc2C)C(C)(C)CCC1 [Compound 3c, Retinyl 2,5-Dimethylbenzyl Ether]
Percent Inhibition of [3H] Retinol Binding (CRBP Assay) [2]: 65 ± 10%
effectiveness in reducing the number of tumors per rat ([3]; 90 days): not effective
Tumors, % of Control Gp. [3, 11]: 104%
Tumors, Avg. No. per Rat [3, 11]: 2.0
Tumors, % of Control Gp. [3, 12]: 171%
Tumors, Avg. No. per Rat [3, 12]: 3.3
Tumors, % of Control Gp. [3, 13]: 109%
Tumors, Avg. No. per Rat [3, 13]: 2.1
toxicity in MNU-mammary cancer studies [4]: not toxic in the mammary carcinogenesis studies
% recovery of retinyl ether from feed [5, 14]: 96%
% recovery of retinyl ether from feed [5, 15]: 106%
% recovery of retinyl ether from feed [5, 16]: 96%
% recovery of retinyl ether from feed [5, 17]: 102%
% recovery of retinyl ether from feed ([5]; Immediately After Mixing): 103%
% recovery of retinyl ether [5]: 100%
stability in diet mixtures [5]: essentially unchanged
NOAEL (in vivo): 431 mg/kg/day
Toxic Dose (in vivo): > 431 mg/kg day
clinical toxicity (alopecia, scaly skin, limping) (in vivo): No evidence of clinical toxicity except for scaly skin

SMILES: CC1=C(/C=C/C(C)=C/C=C/C(C)=C/COCc2ccccc2)C(C)(C)CCC1 [Compound 3d, Retinyl Benzyl Ether]
binding to CRBP, in words ([2]; 150-fold molar excess): not conducive to CRBP binding; also recorded: does not bind significantly to CRBP
Percent Inhibition of [3H] Retinol Binding (CRBP Assay) [2]: 5 ± 5%

SMILES: COc1ccc(COC/C=C(C)/C=C/C=C(C)/C=C/C2=C(C)CCCC2(C)C)cc1 [Compound 3e, Retinyl 4-Methoxybenzyl Ether]
binding to CRBP, in words ([2]; 150-fold molar excess): not conducive to CRBP binding
Percent Inhibition of [3H] Retinol Binding (CRBP Assay) [2]: 7 ± 7%
effectiveness compared with RTMBE ([3]; 90-day assays, MNU-induced mammary carcinogenesis): less effective than was RTMBE
reductions in the number of tumors per rat ([3]; 90-day study, 1 and 2 mmol/kg of diet): 37-49%
effectiveness in reducing the number of tumors per rat ([3]; 90 days): effective
Tumors, % of Control Gp. [3, 18]: 71%
Tumors, Avg. No. per Rat [3, 18]: 2.5
Tumors, % of Control Gp. [3, 19]: 63%
Tumors, Avg. No. per Rat [3, 19]: 2.2
Tumors, % of Control Gp. [3, 20]: 51%
Tumors, Avg. No. per Rat [3, 20]: 1.8
toxicity in MNU-mammary cancer studies [4]: not toxic in the mammary carcinogenesis studies
NOAEL (in vivo): 433 mg/kg/day
Toxic Dose (in vivo): > 433 mg/kg day
clinical toxicity (alopecia, scaly skin, limping) (in vivo): No evidence of clinical toxicity
Kp at 24 h [6]: 41 ± 14

SMILES: CC(C)=CCOC/C=C(C)/C=C/C=C(C)/C=C/C1=C(C)CCCC1(C)C [RMBE, retinyl 3-methyl-2-butenyl ether]
accumulation of retinyl palmitate in the liver [7]: did not cause
suppression of MNU-induced mammary cancer [8]: inhibited the development of MNU-induced mammary cancer; also recorded: only modestly active

SMILES: CC(=O)OC/C=C(C)/C=C/C=C(C)/C=C/C1=C(C)CCCC1(C)C [Retinyl Acetate, retinyl acetate, reference compound]
accumulation of retinyl palmitate in the liver [7]: a toxic effect produced by efficacious amounts
Adenocarcinomas, % of Control Group A ([9]; 1 mmol/kg diet): 70%
Adenocarcinomas, Avg. No. Per Rat ([9]; 1 mmol/kg diet): 4.5
reduction of average number of tumors per rat ([9]; 1 mmol/kg feed): 30%
reduction of the number of tumors per rat ([3]; 90 days, at 1 mmol/kg): 66%
Tumors, % of Control Gp. [3, 19]: 34%
Tumors, Avg. No. per Rat [3, 19]: 1.2
% of Control Gp., Day 90 [10]: 48%
% of Control Gp., Day 180 [10]: 49%
Avg No. Per Rat (palpable mammary tumors), Day 90 [10]: 1.1
Avg No. Per Rat (palpable mammary tumors), Day 180 [10]: 3.1
